Measured values published in patent publication US20240174684A1, “INHIBITORS OF cGAS ACTIVITY AS THERAPEUTIC AGENTS” (BELLBROOK LABS, LLC, priority 2021, published 2024).
Like-named read-outs stand apart in the source and are kept apart here.

Experiments:
MDR1 (P-glycoprotein) = test: MDCK-MDR1 permeability A→B; assay type: in vitro ADME, Canine; conditions: dog; MDCK cells expressing human MDR1, A→B; read-out: MDCK-MDR Permeability A→B
Experimental: (§1) ADME studies: Compound A and the compounds of the disclosure were tested for aqueous solubility (KSOL), metabolic stability (human and mouse […]) and permeability (Caco-2 and/or MDR1-MDCK cells) to provide an initial indication of oral bioavailability.
(§2) The favorable physicochemical properties are reflected in promising results in in vitro ADME tests. […] Metabolic stability, which was routinely measured with mouse and human hepatocytes, is outstanding, with t, greater than 2 hours for all of the compounds of the disclosure in which it has been measured. Cell permeability was measured using MDCK cells expressing human MDR1 (P-glycoprotein) to assess passive permeability as well as active transport out of the cell. […] Numerous compounds in Table 1 meet these permeability criteria, which is consistent with their design for TPSA <140 Å^2 and increased lipophilicity.
(§3) The MDCK-MDR1 permeability A ->B is shown in Table 2 below, where A represents 5-10 cm/s×10^−6; B represents 1-5 cm/s×10^−6; and C represents <1 cm/ss×10^−6. The metabolic stability half time, in both mouse and human hepatocytes, is also shown in Table 2 below, where A′ represents 100-200 minutes; B′ represents 200-300 minutes; and C′ represents >300 minutes.

cGAS = cGAS (Homo sapiens, UniProt Q8N884); test: Transcreener cGAS enzymatic assay (FP); assay type: biochemical
Experimental: Structural, biochemical and biophysical analysis and selectivity profiling: Potency and MOA studies, including Mn^2+ sensitivity, were performed using the Transcreener cGAS enzymatic assay, which is manufactured at BellBrook Labs (Fitchburg, Wisconsin, USA). This homogenous cGAS enzymatic assay was developed with fluorescence polarization (FP) and time-resolved Forster resonance energy transfer (TR-FRET) readouts, as described in International Patent Publication WO 2020/142729, incorporated by reference herein in its entirety. Plates are read on a PHERAstar FSX multimode reader (BMG). The compounds of the disclosure were tested for inhibition of cGAS ([…]) using this cGAS enzymatic assay under standard conditions (100 μM ATP and GTP, 62.5 nM bp ISD, 60 minute reactions), high ATP and GTP (1 mM) to mimic physiological conditions, in the presence of 200 μM MnCl2, and with mouse cGAS under standard conditions.
The IC50 values for FP under standard and under physiological conditions were determined for several exemplary compounds of the invention. The relative activities for FP Standard IC50 are shown in Table 2 below, where A represents <50 nM; B represents 50-100 nM; C represents 100-200 nM; D represents 200 nM-1μM; and E represents 1-10 μM. For the relative activities for FP Physiological IC50, A′ represents <200 nM; B′ represents 200-500 nM; C′ represents 500 nM-1μM; D′ represents 1-5 μM; and E′ represents >5 μM.

[1] = system: IFNβ production in THP-1 cells; test: IFNβ ELISA in THP-1 cells; assay type: cell-based, human; conditions: Homo sapiens; THP-1 cells
Text: Cellular assays: The human monocyte cell line THP-1 and human primary PBMCs were used to evaluate the cellular activity of compounds with good biochemical potency. These cells produce a robust cGAS/STING-dependent type I IFN response when stimulated with dsDNA and other pathogen-associated molecular patterns, which was detected using a standard ELISA for IFNβ (R&D Systems). The TBK1 inhibitor, BX-795, which acts downstream of cGAS/STING, was used as a probe.
CETSA was also used to confirm that the compounds are binding to cGAS in cells; THP-1 cells are used for this analysis. Compounds were tested in dose response mode by incubating with cells for 1.5 hours at 37° C., followed by pelleting and re-suspending in PBS, heating to 51.5° C. for 3 min and cooling to room temp. Cells were then lysed, debris, including denatured cGAS, was pelleted and the supernatant was analyzed for soluble cGAS by Western Blot using anti-cGAS primary Ab (Cell Signaling). Band intensity was analyzed using Image J software. Stimulation with cGAMP directly activates STING, circumventing cGAS; this was used to determine if compounds had effects on downstream components of cGAS/STING signaling. The IFN-6 ELISA was used as the primary measure of cellular potency and selectivity (Table 3) and used the reporter gene assays for assessing off-target activity with other pattern recognition receptors.
The ICso values for IFNB ELISA stimulated with THP-1, PBMC, DNA, and cGAMP were determined for several exemplary compounds of the invention, and are provided in Table 3 where A represents <1 μM; B represents 1-2.5 μM; C represents 2.5-10 μM; D represents 10-20 μM; and E represents >20 μM.

[2] = system: MDCK cells expressing human MDR1 (P-glycoprotein); test: MDCK-MDR1 permeability A→B; assay type: in vitro ADME, Canine
Experimental: as §1, §2, §3

[3] = high ATP and GTP (1 mM) to mimic physiological conditions, read-out: IC50 FP Physiological
[4] = standard conditions: 100 μM ATP and GTP, 62.5 nM bp ISD, 60 minute reactions, read-out: IC50 FP Standard

Chain of cGAS (Q8N884 whole entry): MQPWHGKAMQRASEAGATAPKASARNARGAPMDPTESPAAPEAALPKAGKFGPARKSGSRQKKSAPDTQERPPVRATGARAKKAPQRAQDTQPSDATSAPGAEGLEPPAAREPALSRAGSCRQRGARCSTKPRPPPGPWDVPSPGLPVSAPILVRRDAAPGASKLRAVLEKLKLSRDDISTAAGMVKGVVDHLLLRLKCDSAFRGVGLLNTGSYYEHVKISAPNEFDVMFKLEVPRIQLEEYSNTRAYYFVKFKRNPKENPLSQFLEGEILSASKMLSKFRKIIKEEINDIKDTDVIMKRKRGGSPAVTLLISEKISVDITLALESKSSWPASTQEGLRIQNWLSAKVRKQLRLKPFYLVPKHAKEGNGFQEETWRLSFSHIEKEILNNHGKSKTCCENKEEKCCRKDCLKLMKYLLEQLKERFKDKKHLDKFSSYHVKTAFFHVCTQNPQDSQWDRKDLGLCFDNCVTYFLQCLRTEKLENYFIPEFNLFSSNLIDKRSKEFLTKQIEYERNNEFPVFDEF

Papp A→B (MDR1 (P-glycoprotein))	IC50 (cGAS; [3])	IC50 (cGAS; [4])	IC50 [1]	MDCK-MDR Permeability A→B [2]	Compound
1 to 5 ×10⁻⁶ cm/s	> 5000 nM	200 to 1000 nM	10000 to 20000 nM	–	Cc1nc(N2C[C@@H](CC(=O)Nc3cccc(C(F)(F)F)c3)C[C@H]2C(=O)O)c2oc3ccccc3c2n1 [Compound 25, (2S,4R)-1-(2-methylbenzofuro[3,2-d]pyrimidin-4-yl)-4-(2-oxo-2-((3-(trifluoromethyl)phenyl)amino)ethyl)pyrrolidine-2-carboxylic acid]
–	1000 to 5000 nM	200 to 1000 nM	> 20000 nM	C (C represents <1 cm/ss×10^−6)	Cc1nc(N2C[C@@H](CC(=O)Nc3cccc4[nH]ncc34)C[C@H]2C(=O)O)c2oc3ccccc3c2n1 [Compound 28, (28.4R)-4-(2-((1H-indazol-4-yl)amino)-2-oxoethyl)-1-(2-methylbenzofuro[3,2-d]pyrimidin-4-yl)pyrrolidine-2-carboxylic acid]
–	500 to 1000 nM	100 to 200 nM	> 20000 nM	C (C represents <1 cm/ss×10^−6)	Cc1nc(N2C[C@@H](CC(=O)Nc3ccc4nc[nH]c4c3)C[C@H]2C(=O)O)c2oc3ccccc3c2n1 [Compound 29, (2S,4R)-4-(2-((1H-benzo[d]imidazol-6-yl)amino)-2-oxoethyl)-1-(2-methylbenzofuro[3,2-d]pyrimidin-4-yl)pyrrolidine-2-carboxylic acid]
–	1000 to 5000 nM	100 to 200 nM	> 20000 nM	C (C represents <1 cm/ss×10^−6)	Cc1nc(N2C[C@@H](CC(=O)Nc3ccc4cn[nH]c4c3)C[C@H]2C(=O)O)c2oc3ccccc3c2n1 [Compound 30, (28.4R)-4-(2-((1H-indazol-6-yl)amino)-2-oxoethyl)-1-(2-methylbenzofuro[3,2-d]pyrimidin-4-yl)pyrrolidine-2-carboxylic acid]
–	200 to 500 nM	< 50 nM	> 20000 nM	C (C represents <1 cm/ss×10^−6)	Cc1nc(N2C[C@@H](CC(=O)Nc3ccc(-c4cccnn4)cc3)C[C@H]2C(=O)O)c2oc3ccccc3c2n1 [Compound 44, (2S,4R)-1-(2-methylbenzofuro[3,2-d]pyrimidin-4-yl)-4-(2-oxo-2-((4-(pyridazin-3-yl)phenyl)amino)ethyl)pyrrolidine-2-carboxylic acid]
5 to 10 ×10⁻⁶ cm/s	200 to 500 nM	< 50 nM	< 1000 nM	–	COc1cccc(-c2ccc(NC(=O)C[C@H]3C[C@@H](C(=O)O)N(c4nc(C)nc5c4oc4ccccc45)C3)cc2)c1 [Compound 50, (2S,4R)-4-(2-((3′-methoxy-[1,1′-biphenyl]-4-yl)amino)-2-oxoethyl)-1-(2-methylbenzofuro[3,2-d]pyrimidin-4-yl)pyrrolidine-2-carboxylic acid]
–	1000 to 5000 nM	200 to 1000 nM	> 20000 nM	C (C represents <1 cm/ss×10^−6)	Cc1nc(N2C[C@@H](CC(=O)Nc3ccc(Cc4ccccn4)cc3)C[C@H]2C(=O)O)c2oc3ccccc3c2n1 [Compound 56, (2S,4R)-1-(2-methylbenzofuro[3,2-d]pyrimidin-4-yl)-4-(2-oxo-2-((4-(pyridin-2-ylmethyl)phenyl)amino)ethyl)pyrrolidine-2-carboxylic acid]
–	1000 to 5000 nM	100 to 200 nM	> 20000 nM	C (C represents <1 cm/ss×10^−6)	Cc1nc(N2C[C@@H](CC(=O)Nc3cccc(N4CCOCC4)c3)C[C@H]2C(=O)O)c2oc3ccccc3c2n1 [Compound 57, (2S,4R)-1-(2-methylbenzofuro[3,2-d]pyrimidin-4-yl)-4-(2-((3-morpholinophenyl)amino)-2-oxoethyl)pyrrolidine-2-carboxylic acid]
–	1000 to 5000 nM	200 to 1000 nM	> 20000 nM	C (C represents <1 cm/ss×10^−6)	Cc1nc(N2C[C@@H](CC(=O)Nc3cccc(N4CCC(O)CC4)c3)C[C@H]2C(=O)O)c2oc3ccccc3c2n1 [Compound 58, (2S,4R)-4-(2-((3-(4-hydroxypiperidin-1-yl)phenyl)amino)-2-oxoethyl)-1-(2-methylbenzofuro[3,2-d]pyrimidin-4-yl)pyrrolidine-2-carboxylic acid]

Second part, the molecule before the results:

Compound	Papp A→B (MDR1 (P-glycoprotein))	IC50 (cGAS; [3])	IC50 (cGAS; [4])	IC50 [1]	MDCK-MDR Permeability A→B [2]
Cc1ccc(NC(=O)C[C@H]2C[C@@H](C(=O)O)N(c3nc(C)nc4c3oc3ccccc34)C2)cc1 [Compound 15, (2S,4R)-1-(2-methylbenzofuro[3,2-d]pyrimidin-4-yl)-4-(2-oxo-2-(p-tolylamino)ethyl)pyrrolidine-2-carboxylic acid]	1 to 5 ×10⁻⁶ cm/s	1000 to 5000 nM	200 to 1000 nM	> 20000 nM	–
Cc1cccc(NC(=O)C[C@H]2C[C@@H](C(=O)O)N(c3nc(C)nc4c3oc3ccccc34)C2)c1 [Compound 16, (28.4R)-1-(2-methylbenzofuro[3,2-d]pyrimidin-4-yl)-4-(2-oxo-2-(m-tolylamino)ethyl)pyrrolidine-2-carboxylic acid]	1 to 5 ×10⁻⁶ cm/s	1000 to 5000 nM	200 to 1000 nM	> 20000 nM	–
Cc1nc(N2C[C@@H](CC(=O)Nc3ccc(F)cc3)C[C@H]2C(=O)O)c2oc3ccccc3c2n1 [Compound 18, (2S,4R)-4-(2-((4-fluorophenyl)amino)-2-oxoethyl)-1-(2-methylbenzofuro[3,2-d]pyrimidin-4-yl)pyrrolidine-2-carboxylic acid]	–	1000 to 5000 nM	200 to 1000 nM	> 20000 nM	C (C represents <1 cm/ss×10^−6)
Cc1nc(N2C[C@@H](CC(=O)Nc3cccc(F)c3)C[C@H]2C(=O)O)c2oc3ccccc3c2n1 [Compound 19, (2S,4R)-4-(2-((3-fluorophenyl)amino)-2-oxoethyl)-1-(2-methylbenzofuro[3,2-d]pyrimidin-4-yl)pyrrolidine-2-carboxylic acid]	1 to 5 ×10⁻⁶ cm/s	1000 to 5000 nM	200 to 1000 nM	10000 to 20000 nM	–
Cc1nc(N2C[C@@H](CC(=O)Nc3ccccc3F)C[C@H]2C(=O)O)c2oc3ccccc3c2n1 [Compound 20, (2S,4R)-4-(2-((2-fluorophenyl)amino)-2-oxoethyl)-1-(2-methylbenzofuro[3,2-d]pyrimidin-4-yl)pyrrolidine-2-carboxylic acid]	1 to 5 ×10⁻⁶ cm/s	> 5000 nM	200 to 1000 nM	> 20000 nM	–
Cc1nc(N2C[C@@H](CC(=O)Nc3ccc(Cl)cc3)C[C@H]2C(=O)O)c2oc3ccccc3c2n1 [Compound 21, (28.4R)-4-(2-((4-chlorophenyl)amino)-2-oxoethyl)-1-(2-methylbenzofuro[3,2-d]pyrimidin-4-yl)pyrrolidine-2-carboxylic acid]	1 to 5 ×10⁻⁶ cm/s	1000 to 5000 nM	100 to 200 nM	10000 to 20000 nM	–
Cc1nc(N2C[C@@H](CC(=O)Nc3ccccc3Cl)C[C@H]2C(=O)O)c2oc3ccccc3c2n1 [Compound 23, (28.4R)-4-(2-((2-chlorophenyl)amino)-2-oxoethyl)-1-(2-methylbenzofuro[3,2-d]pyrimidin-4-yl)pyrrolidine-2-carboxylic acid]	1 to 5 ×10⁻⁶ cm/s	> 5000 nM	200 to 1000 nM	> 20000 nM	–
